Data from patent publication US20200069675A1, “PHARMACEUTICAL PREPARATIONS OF SEBACOYL DINALBUPHINE AND ACETAMINOPHEN AND METHODS FOR TREATING PAIN” (International Education Foundation, priority 2018, published 2020).

Columns and labels:
SD rats = test: Paw pressure test (Randall and Selitto), analgesic effect after oral administration; format: in vivo, Sprague-Dawley rats; conditions: alone or combined, mean ± SE; for AUC / AUG: analgesic effect AUC; for AUC: 0-300 min; for Maximum Peak (% of MPA): cut-off 750 g; for Duration of action (min) (20% of MPA): time over 20% MPA; for Onset of action (min) (20% of MPA): time up to 20% MPA
Protocol: Male Sprague-Dawley rats weights between 260 and 330 g were purchased from BioLASCO (Taipei, Taiwan). The rats were housed in a controlled condition (free access to food and water); 12-h light-dark cycle, temperature 22° C. and humidity 60%. All experiments were conducted in accordance with the IACUC's Protocol for the Care and Use of Animals and to treat the animals in an ethical and humane manner consistent with the law.
Analgesic effects studies were used to the paw pressure test by Randall and Selitto. Nociceptive threshold is expressed in grams and measured with an analgesimeter (IITC Inc. Life Science, CA), were applied to the left hind paw of rats. All animals were tested at 15, 30, and 45 min prior to medication, to obtain an average baseline. Results were expressed as a percentage of the maximum possible effect (% MPE), according to the formula % MPA=(Test-Baseline)/(Cutoff-Baseline)×100, cut-off value: 750 g. AUC (area under curve) is independent of each individual, at each time point detection value minus own baseline and integral, then calculated the average. Negative values (% MPA and AUC) are considered as zero. The maximum peak of % MPA and Tmax are independent of each individual, then calculated the average. With 20% MPA as a baseline of valid analgesic effect, analysis of onset time of action up to 20% MPA and duration time of action over 20% MPA. Pharmacodynamic studies were conducted to compare in rats the analgesic effects of oral administration of SDE 75 mg/kg alone. AAP product (100 mg/kg) alone and combinations of SDE 75 mg/kg plus AAP product (100 mg/kg) or NAL 60 mg/kg alone. AAP product (100 mg/kg) alone and combinations of NAL 60 mg/kg plus AAP product (100 mg/kg). The anti-nociceptive thresholds were measured at 30, 60, 90, 120, 150, 180, 210, 240, 270, and 300 min after drug administration.

[1] = conventional form, Br J Clin Pharmacol 1988, 25:264-8; cited from earlier work
[2] = tested on: hospitalized patients with postoperative pain; conditions: single oral doses, 128 hospitalized patients, evaluated each hour for 6 hours; Clin Pharmacol Ther 1986; 39:295-9; cited from earlier work
postoperative pain = conditions: oral vs intramuscular; cited from earlier work
[3] = Test 1, AAP product 100 mg/kg, SDE 75 mg/kg
[4] = Test 1, AAP product 100 mg/kg, SDE 75 mg/kg, time of maximum % MPA
[5] = Test 2, NAL 60 mg/kg, AAP product 100 mg/kg, MPA greater than 50%
[6] = Test 2, NAL 60 mg/kg, AAP product 100 mg/kg

O=C(CCCCCCCCC(=O)Oc1ccc2c3c1O[C@H]1[C@@H](O)CC[C@@]4(O)[C@@H](C2)N(CC2CCC2)CC[C@]314)Oc1ccc2c3c1O[C@H]1[C@@H](O)CC[C@@]4(O)[C@@H](C2)N(CC2CCC2)CC[C@]314 [SDE, sebacoyl dinalbuphine ester]
AUC (SD rats; [3]): 359.4 ± 34.8 g·h
Maximum Peak (% of MPA) (SD rats; [3]): 46.6 ± 3.8 % of MPA
Tmax (SD rats; [4]): 37.5 ± 3.9 min
Duration of action (min) (20% of MPA) (SD rats; [3]): 99.8 ± 10.0 min
Onset of action (min) (20% of MPA) (SD rats; [3]): 14.7 ± 1.3 min

Oc1ccc2c3c1O[C@H]1[C@@H](O)CC[C@@]4(O)[C@@H](C2)N(CC2CCC2)CC[C@]314 [NAL, nalbuphine]
bioavailability through oral administration [1]: less than 5%
analgesic effect (measures of total and peak analgesia) [2]: significantly superior to placebo
potency of oral relative to intramuscular nalbuphine as postoperative analgesic (postoperative pain): one quarter to one fifth as potent as intramuscular nalbuphine
Duration of action (SD rats; [5]): 16.61 ± 3.92 min
Onset of action (SD rats; [5]): 24.36 ± 0.86 min
AUG (SD rats; [6]): 298.9 ± 13.98 g·h
% MPA (Maximum Peak) (SD rats; [6]): 57.87 ± 2.77 % MPA
Tmax (SD rats; [6]): 30 ± 0 min

CC(=O)Nc1ccc(O)cc1 [AAP, acetaminophen]
analgesic effect (measures of total and peak analgesia) [2]: significantly superior to placebo
AUC (SD rats; [3]): 309.3 ± 68.5 g·h
Maximum Peak (% of MPA) (SD rats; [3]): 32.4 ± 2.7 % of MPA
Tmax (SD rats; [4]): 50.0 ± 10.0 min
Duration of action (min) (20% of MPA) (SD rats; [3]): 77.5 ± 13.5 min
Onset of action (min) (20% of MPA) (SD rats; [3]): 46.7 ± 17.5 min
AUG (SD rats; [6]): 274.83 ± 51.94 g·h
% MPA (Maximum Peak) (SD rats; [6]): 38.26 ± 7.2 % MPA
Tmax (SD rats; [6]): 45 ± 8.66 min
